Experimental data published in patent publication US11945813B2, “5-substituted 4-amino-1H-benzo[c][1,2,6]thiadiazine 2,2-dioxides and formulations and uses thereof” (Firmenich Incorporated, priority 2018, dated 2024).

Target: T1, T1R2/T1R3 taste receptor (Homo sapiens, UniProt Q8TE23)
T1 sequence (Q8TE23 20-839): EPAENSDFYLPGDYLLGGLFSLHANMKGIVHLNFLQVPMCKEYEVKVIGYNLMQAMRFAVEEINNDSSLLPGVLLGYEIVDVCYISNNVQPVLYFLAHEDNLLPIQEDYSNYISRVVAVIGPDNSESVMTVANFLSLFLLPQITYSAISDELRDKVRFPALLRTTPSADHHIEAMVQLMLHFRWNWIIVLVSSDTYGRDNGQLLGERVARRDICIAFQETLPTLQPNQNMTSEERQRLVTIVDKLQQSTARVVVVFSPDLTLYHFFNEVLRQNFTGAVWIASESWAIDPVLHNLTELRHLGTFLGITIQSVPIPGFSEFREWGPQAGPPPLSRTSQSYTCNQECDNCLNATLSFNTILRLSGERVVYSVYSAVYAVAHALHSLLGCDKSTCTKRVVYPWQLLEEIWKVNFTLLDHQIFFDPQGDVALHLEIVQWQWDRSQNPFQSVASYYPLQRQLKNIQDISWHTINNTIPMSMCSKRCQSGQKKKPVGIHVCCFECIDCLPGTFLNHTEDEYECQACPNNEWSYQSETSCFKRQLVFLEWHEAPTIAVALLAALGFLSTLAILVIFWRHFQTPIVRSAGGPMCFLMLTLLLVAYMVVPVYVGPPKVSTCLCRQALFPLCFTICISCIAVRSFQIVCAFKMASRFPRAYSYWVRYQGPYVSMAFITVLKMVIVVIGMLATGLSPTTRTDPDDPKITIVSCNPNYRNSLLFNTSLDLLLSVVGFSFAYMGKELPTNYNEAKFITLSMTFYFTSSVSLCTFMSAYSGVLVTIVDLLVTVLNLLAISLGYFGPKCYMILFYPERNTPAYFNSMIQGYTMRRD
T1 sequence (Q7RTX0 21-852 partner): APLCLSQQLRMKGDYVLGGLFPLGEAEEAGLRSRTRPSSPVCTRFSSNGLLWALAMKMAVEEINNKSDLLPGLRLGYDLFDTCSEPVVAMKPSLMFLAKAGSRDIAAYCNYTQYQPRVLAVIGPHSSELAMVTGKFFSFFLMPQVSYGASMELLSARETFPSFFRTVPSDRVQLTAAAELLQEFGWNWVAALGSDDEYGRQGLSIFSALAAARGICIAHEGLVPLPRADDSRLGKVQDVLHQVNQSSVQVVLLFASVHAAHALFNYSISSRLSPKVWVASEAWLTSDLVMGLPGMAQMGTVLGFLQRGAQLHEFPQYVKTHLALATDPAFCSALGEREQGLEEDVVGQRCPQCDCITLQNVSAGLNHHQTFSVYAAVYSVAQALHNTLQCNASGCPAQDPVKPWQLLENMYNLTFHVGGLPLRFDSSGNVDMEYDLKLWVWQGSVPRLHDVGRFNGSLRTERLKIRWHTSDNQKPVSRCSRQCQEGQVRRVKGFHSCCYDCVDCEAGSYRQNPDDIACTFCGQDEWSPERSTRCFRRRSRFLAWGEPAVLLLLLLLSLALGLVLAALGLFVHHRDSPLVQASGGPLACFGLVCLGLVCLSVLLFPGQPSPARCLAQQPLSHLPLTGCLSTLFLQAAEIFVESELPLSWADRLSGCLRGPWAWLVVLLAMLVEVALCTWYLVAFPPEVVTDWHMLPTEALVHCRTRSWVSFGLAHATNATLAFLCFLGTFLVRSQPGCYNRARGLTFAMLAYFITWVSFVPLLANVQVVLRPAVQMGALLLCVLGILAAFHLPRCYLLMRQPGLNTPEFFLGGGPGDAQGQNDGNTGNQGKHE
Test: Receptor-based assay: sweetener EC50 alone and with test compound (enhancement ratio)
Type: cell-based
Conditions: for Fructose Enhancement EC50 Ratio: sweetener fructose; for Sucralose Enhancement EC50 Ratio: sweetener sucralose; for Sucrose Enhancement EC50 Ratio: sweetener sucrose
In short: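 Sucrose, sucralose or fructose EC50 measured on human T1R2/T1R3, alone and with 3, 10 or 50 μM test compound. Enhancement is the EC50 ratio without/with compound, binned A >20, B 10-20, C >1 to <10.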

SMILES	Fructose Enhancement EC50 Ratio (50 μM test compound)	Sucralose Enhancement EC50 Ratio (10 μM test compound)	Sucralose Enhancement EC50 Ratio (50 μM test compound)	Sucrose Enhancement EC50 Ratio (3 μM test compound)	Sucrose Enhancement EC50 Ratio (10 μM test compound)	Sucrose Enhancement EC50 Ratio (50 μM test compound)	Fructose Enhancement EC50 Ratio (10 μM test compound)
CC(C)(COc1cccc2c1C(N)=NS(=O)(=O)N2)Nc1ccnc(N2CCCC2)n1 [Compound 204]	C (A “C” value indicates an enhancement ratio greater than 1 and less than 10)	A (An “A” value indicates an enhancement ratio of greater than 20)	A (An “A” value indicates an enhancement ratio of greater than 20)	C (A “C” value indicates an enhancement ratio greater than 1 and less than 10)	C (A “C” value indicates an enhancement ratio greater than 1 and less than 10)	C (A “C” value indicates an enhancement ratio greater than 1 and less than 10)	
CC(C)NC(=O)c1ccc(N2CCC[C@H](COc3cccc4c3C(N)=NS(=O)(=O)N4)C2)nc1 [Compound 506]		A (An “A” value indicates an enhancement ratio of greater than 20)	A (An “A” value indicates an enhancement ratio of greater than 20)	C (A “C” value indicates an enhancement ratio greater than 1 and less than 10)	C (A “C” value indicates an enhancement ratio greater than 1 and less than 10)	C (A “C” value indicates an enhancement ratio greater than 1 and less than 10)	
NC1=NS(=O)(=O)Nc2cccc(OC[C@H]3CCCN(c4cccc(C(=O)N5CCCCC5)n4)C3)c21 [Compound 413]	C (A “C” value indicates an enhancement ratio greater than 1 and less than 10)	B (A “B” value indicates an enhancement ratio from 10 to 20)	A (An “A” value indicates an enhancement ratio of greater than 20)	C (A “C” value indicates an enhancement ratio greater than 1 and less than 10)	C (A “C” value indicates an enhancement ratio greater than 1 and less than 10)	C (A “C” value indicates an enhancement ratio greater than 1 and less than 10)	
NC1=NS(=O)(=O)Nc2cccc(OC[C@H]3CCCN(c4ccc(C(=O)N5CCCC5)cn4)C3)c21 [Compound 512]	C (A “C” value indicates an enhancement ratio greater than 1 and less than 10)	A (An “A” value indicates an enhancement ratio of greater than 20)	A (An “A” value indicates an enhancement ratio of greater than 20)	C (A “C” value indicates an enhancement ratio greater than 1 and less than 10)	C (A “C” value indicates an enhancement ratio greater than 1 and less than 10)	C (A “C” value indicates an enhancement ratio greater than 1 and less than 10)	
CN(C)C(=O)c1cccc(N2CCC[C@H](COc3cccc4c3C(N)=NS(=O)(=O)N4)C2)n1 [Compound 410]	C (A “C” value indicates an enhancement ratio greater than 1 and less than 10)	B (A “B” value indicates an enhancement ratio from 10 to 20)	A (An “A” value indicates an enhancement ratio of greater than 20)	C (A “C” value indicates an enhancement ratio greater than 1 and less than 10)	B (A “B” value indicates an enhancement ratio from 10 to 20)	B (A “B” value indicates an enhancement ratio from 10 to 20)	
CC(C)(COc1cccc2c1C(N)=NS(=O)(=O)N2)Nc1ccnc(N2CCOCC2)n1 [Compound 205]	C (A “C” value indicates an enhancement ratio greater than 1 and less than 10)	B (A “B” value indicates an enhancement ratio from 10 to 20)	A (An “A” value indicates an enhancement ratio of greater than 20)	C (A “C” value indicates an enhancement ratio greater than 1 and less than 10)	C (A “C” value indicates an enhancement ratio greater than 1 and less than 10)	C (A “C” value indicates an enhancement ratio greater than 1 and less than 10)	
NC1=NS(=O)(=O)Nc2cccc(OC[C@H]3CCCN(c4cccc(C(=O)N5CCCC5)n4)C3)c21 [Compound 412]	C (A “C” value indicates an enhancement ratio greater than 1 and less than 10)	A (An “A” value indicates an enhancement ratio of greater than 20)	A (An “A” value indicates an enhancement ratio of greater than 20)	C (A “C” value indicates an enhancement ratio greater than 1 and less than 10)	C (A “C” value indicates an enhancement ratio greater than 1 and less than 10)	B (A “B” value indicates an enhancement ratio from 10 to 20)	C (A “C” value indicates an enhancement ratio greater than 1 and less than 10)
CNC(=O)c1ccc(N2CCC[C@H](COc3cccc4c3C(N)=NS(=O)(=O)N4)C2)nc1 [Compound 500]		A (An “A” value indicates an enhancement ratio of greater than 20)	A (An “A” value indicates an enhancement ratio of greater than 20)	C (A “C” value indicates an enhancement ratio greater than 1 and less than 10)	C (A “C” value indicates an enhancement ratio greater than 1 and less than 10)	C (A “C” value indicates an enhancement ratio greater than 1 and less than 10)	
CC(C)(COc1cccc2c1C(N)=NS(=O)(=O)N2)Nc1ccnc(-n2cccn2)n1 [Compound 202]						C (A “C” value indicates an enhancement ratio greater than 1 and less than 10)	
NC1=NS(=O)(=O)Nc2cccc(OC[C@H]3CCCN(c4ccccn4)C3)c21 [Compound 104]		A (An “A” value indicates an enhancement ratio of greater than 20)	A (An “A” value indicates an enhancement ratio of greater than 20)	C (A “C” value indicates an enhancement ratio greater than 1 and less than 10)	C (A “C” value indicates an enhancement ratio greater than 1 and less than 10)	C (A “C” value indicates an enhancement ratio greater than 1 and less than 10)	C (A “C” value indicates an enhancement ratio greater than 1 and less than 10)
NC1=NS(=O)(=O)Nc2cccc(OC[C@H]3CCCN(c4ccc(C(=O)NC5CC5)cn4)C3)c21 [Compound 507]	C (A “C” value indicates an enhancement ratio greater than 1 and less than 10)	A (An “A” value indicates an enhancement ratio of greater than 20)	A (An “A” value indicates an enhancement ratio of greater than 20)	C (A “C” value indicates an enhancement ratio greater than 1 and less than 10)	C (A “C” value indicates an enhancement ratio greater than 1 and less than 10)	C (A “C” value indicates an enhancement ratio greater than 1 and less than 10)	
